Data from ChEMBL document CHEMBL1156118, “Evaluation of substituted 6-arylquinazolin-4-amines as potent and selective inhibitors of cdc2-like kinases (Clk)” (Bioorg Med Chem Lett, 2009).

What was measured:
[1] = target: T1, Dual specificity protein kinase CLK4 (Homo sapiens, UniProt Q9HAZ1); test: Inhibition of Clk4
[2] = target: Dual specificity protein kinase CLK3 (Homo sapiens, UniProt P49761); test: Binding affinity to Clk3 assessed as dissociation constant
[3] = target: T1, Dual specificity protein kinase CLK4; test: Binding affinity to Clk4 assessed as dissociation constant
[4] = target: Dual specificity tyrosine-phosphorylation-regulated kinase 1B (Homo sapiens, UniProt Q9Y463); test: Binding affinity to Dyrk1B assessed as dissociation constant
Sequence of Dual specificity tyrosine-phosphorylation-regulated kinase 1B (Q9Y463 whole entry): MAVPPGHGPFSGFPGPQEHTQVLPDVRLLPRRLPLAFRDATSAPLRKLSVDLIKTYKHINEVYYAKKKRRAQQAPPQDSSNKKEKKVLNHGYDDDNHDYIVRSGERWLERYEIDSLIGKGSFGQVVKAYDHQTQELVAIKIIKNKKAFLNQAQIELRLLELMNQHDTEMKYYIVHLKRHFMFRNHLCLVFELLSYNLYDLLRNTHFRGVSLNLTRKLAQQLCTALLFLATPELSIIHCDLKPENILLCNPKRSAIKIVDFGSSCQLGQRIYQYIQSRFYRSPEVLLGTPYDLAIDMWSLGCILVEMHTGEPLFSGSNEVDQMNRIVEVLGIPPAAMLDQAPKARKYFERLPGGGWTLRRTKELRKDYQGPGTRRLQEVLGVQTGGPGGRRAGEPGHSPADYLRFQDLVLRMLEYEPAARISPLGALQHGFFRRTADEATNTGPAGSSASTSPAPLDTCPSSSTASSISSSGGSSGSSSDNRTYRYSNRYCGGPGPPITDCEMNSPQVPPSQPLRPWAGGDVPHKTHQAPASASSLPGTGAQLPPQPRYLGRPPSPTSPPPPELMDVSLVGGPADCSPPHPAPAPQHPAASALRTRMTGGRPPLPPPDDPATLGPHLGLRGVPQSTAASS

[5] = target: Epidermal growth factor receptor (Homo sapiens, UniProt P00533); test: Binding affinity to EGFR assessed as dissociation constant
Sequence of Epidermal growth factor receptor (P00533 whole entry): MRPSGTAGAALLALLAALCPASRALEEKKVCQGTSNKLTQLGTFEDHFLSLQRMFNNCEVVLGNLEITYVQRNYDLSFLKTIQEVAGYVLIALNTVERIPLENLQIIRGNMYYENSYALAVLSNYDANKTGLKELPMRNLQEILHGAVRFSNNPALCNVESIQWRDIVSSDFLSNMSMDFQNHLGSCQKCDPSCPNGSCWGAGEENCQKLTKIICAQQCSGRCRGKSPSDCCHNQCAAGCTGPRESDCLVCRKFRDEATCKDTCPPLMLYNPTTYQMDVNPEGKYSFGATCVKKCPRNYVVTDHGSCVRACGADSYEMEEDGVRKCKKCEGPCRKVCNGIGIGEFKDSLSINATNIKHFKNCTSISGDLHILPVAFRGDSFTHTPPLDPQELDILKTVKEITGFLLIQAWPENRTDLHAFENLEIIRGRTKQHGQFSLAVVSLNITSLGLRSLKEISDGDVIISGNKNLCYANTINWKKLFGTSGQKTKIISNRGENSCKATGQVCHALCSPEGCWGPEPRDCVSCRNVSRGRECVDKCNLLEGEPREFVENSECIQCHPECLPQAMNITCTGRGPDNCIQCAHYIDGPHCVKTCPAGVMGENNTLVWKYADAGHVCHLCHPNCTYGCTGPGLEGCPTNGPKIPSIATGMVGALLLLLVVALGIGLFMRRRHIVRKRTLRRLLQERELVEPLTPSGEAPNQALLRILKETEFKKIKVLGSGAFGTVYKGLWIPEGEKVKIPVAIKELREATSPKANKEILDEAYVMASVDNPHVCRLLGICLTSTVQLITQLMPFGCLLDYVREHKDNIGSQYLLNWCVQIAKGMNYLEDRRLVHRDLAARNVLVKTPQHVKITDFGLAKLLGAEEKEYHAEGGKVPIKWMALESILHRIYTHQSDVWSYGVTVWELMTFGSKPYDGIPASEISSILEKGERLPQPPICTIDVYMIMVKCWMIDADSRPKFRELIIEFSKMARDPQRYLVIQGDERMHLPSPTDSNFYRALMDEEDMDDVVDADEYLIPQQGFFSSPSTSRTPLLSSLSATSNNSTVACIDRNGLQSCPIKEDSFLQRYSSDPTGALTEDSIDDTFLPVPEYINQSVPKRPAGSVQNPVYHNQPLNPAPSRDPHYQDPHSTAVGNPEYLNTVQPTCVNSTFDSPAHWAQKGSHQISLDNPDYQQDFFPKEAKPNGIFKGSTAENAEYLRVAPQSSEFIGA

[6] = target: Dual specificity tyrosine-phosphorylation-regulated kinase 1A (Homo sapiens, UniProt Q13627); test: Binding affinity to Dyrk1A assessed as dissociation constant
[7] = target: Dual specificity protein kinase CLK2 (Homo sapiens, UniProt P49760); test: Binding affinity to Clk2 assessed as dissociation constant
Sequence of Dual specificity protein kinase CLK2 (P49760 whole entry): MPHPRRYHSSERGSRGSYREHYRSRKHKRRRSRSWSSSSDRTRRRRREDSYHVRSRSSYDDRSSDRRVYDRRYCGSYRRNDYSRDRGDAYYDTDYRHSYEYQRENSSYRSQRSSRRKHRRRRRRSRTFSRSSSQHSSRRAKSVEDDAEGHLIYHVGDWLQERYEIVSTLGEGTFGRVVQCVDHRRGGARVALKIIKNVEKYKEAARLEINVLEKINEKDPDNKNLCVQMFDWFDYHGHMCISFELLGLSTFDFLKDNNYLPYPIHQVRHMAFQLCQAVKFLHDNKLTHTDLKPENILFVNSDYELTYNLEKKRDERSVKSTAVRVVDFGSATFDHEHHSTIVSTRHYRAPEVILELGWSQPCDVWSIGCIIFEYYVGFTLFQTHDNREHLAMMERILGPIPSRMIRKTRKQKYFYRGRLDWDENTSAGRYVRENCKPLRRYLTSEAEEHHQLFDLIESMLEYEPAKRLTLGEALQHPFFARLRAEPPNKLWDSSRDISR

[8] = target: Dual specificity protein kinase CLK1 (Homo sapiens, UniProt P49759); test: Binding affinity to Clk1 assessed as dissociation constant
Sequence of Dual specificity protein kinase CLK1 (P49759 whole entry): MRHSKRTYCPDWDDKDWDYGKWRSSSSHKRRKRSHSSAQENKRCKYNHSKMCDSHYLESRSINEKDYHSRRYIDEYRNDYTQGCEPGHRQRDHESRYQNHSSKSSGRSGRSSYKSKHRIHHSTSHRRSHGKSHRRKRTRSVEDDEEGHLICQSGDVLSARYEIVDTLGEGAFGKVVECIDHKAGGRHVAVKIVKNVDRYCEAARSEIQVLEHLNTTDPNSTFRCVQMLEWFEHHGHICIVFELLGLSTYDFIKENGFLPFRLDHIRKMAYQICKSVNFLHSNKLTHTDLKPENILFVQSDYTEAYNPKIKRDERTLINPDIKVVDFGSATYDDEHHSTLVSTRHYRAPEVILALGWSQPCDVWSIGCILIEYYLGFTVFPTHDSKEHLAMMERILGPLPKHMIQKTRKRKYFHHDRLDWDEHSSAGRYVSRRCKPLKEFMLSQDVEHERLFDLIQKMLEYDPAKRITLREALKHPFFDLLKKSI

T1 sequence (Q9HAZ1 whole entry): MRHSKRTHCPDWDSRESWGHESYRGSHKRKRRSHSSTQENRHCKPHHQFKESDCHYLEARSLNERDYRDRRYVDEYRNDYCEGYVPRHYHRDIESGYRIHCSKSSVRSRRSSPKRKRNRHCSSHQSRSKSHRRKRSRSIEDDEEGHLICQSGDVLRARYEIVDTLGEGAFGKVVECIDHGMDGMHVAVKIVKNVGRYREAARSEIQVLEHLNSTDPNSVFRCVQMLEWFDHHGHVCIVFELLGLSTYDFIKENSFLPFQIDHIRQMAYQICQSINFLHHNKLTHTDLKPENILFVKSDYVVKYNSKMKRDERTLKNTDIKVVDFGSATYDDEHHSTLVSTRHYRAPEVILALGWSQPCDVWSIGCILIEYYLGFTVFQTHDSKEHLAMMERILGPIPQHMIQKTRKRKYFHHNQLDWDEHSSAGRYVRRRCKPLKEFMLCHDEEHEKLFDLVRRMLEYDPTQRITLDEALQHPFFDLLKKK
Sequence of Dual specificity protein kinase CLK3 (P49761 whole entry): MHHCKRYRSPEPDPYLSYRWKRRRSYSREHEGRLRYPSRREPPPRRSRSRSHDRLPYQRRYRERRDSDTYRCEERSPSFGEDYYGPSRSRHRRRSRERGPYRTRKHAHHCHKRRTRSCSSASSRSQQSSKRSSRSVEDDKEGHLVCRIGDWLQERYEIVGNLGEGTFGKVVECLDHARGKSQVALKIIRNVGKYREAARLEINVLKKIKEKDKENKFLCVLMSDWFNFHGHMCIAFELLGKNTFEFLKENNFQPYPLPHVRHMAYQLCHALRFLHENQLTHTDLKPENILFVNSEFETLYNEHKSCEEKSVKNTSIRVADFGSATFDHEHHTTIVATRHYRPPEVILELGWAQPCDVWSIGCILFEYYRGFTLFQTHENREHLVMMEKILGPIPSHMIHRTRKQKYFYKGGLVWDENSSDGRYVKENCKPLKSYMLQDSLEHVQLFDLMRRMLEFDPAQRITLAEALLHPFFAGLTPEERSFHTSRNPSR

SMILES | IC50 [1] [nM] | also measured
COc1cccc(-c2ccc3ncnc(NCc4cccs4)c3c2)c1 | 891 | –
Cc1csc(CNc2ncnc3ccc(-c4ccc5c(c4)OCCO5)cc23)c1 | 501 | –
c1csc(CNc2ncnc3ccc(-c4ccc5c(c4)OCO5)cc23)c1 | 63 | Kd [2]: 470 nM; Kd [3]: 50 nM; Kd [4]: 430 nM; Kd [5]: 230 nM; Kd [6]: 27 nM; Kd [7]: 680 nM; Kd [8]: 37 nM
c1coc(-c2ccc3ncnc(NCc4cccs4)c3c2)c1 | 250 | –
COc1cccc(-c2ccc3ncnc(NCc4cc(C)cs4)c3c2)c1 | 1000 | –
Cc1noc(C)c1-c1ccc2ncnc(NCc3cccc(F)c3)c2c1 | 178 | –
COc1cccc(-c2ccc3ncnc(NCc4ccoc4)c3c2)c1 | 1000 | –
c1coc(-c2ccc3ncnc(NCc4ccoc4)c3c2)c1 | 111 | –
Fc1cccc(CNc2ncnc3ccc(-c4ccco4)cc23)c1 | 141 | –
c1nc(NCc2ccoc2)c2cc(-c3ccc4c(c3)OCO4)ccc2n1 | 63 | –
Cc1noc(C)c1-c1ccc2ncnc(NCc3cccs3)c2c1 | 158 | –
c1cncc(CNc2ncnc3ccc(-c4ccco4)cc23)c1 | 794 | –
COc1cccc(-c2ccc3ncnc(NCc4cccc(C)c4)c3c2)c1 | 1120 | –

Second part, led by results:

IC50 [1] [nM] | SMILES | also measured
224 | Cc1cccc(CNc2ncnc3ccc(-c4ccco4)cc23)c1 | –
3550 | COc1cccc(-c2ccc3ncnc(NCc4cccnc4)c3c2)c1 | –
126 | Fc1cccc(CNc2ncnc3ccc(-c4ccc5c(c4)OCO5)cc23)c1 | –
631 | Cc1cccc(CNc2ncnc3ccc(-c4ccc5c(c4)OCCO5)cc23)c1 | –
126 | Cc1cccc(CNc2ncnc3ccc(-c4ccc5c(c4)OCO5)cc23)c1 | –
501 | Cc1csc(CNc2ncnc3ccc(-c4c(C)noc4C)cc23)c1 | –
100 | c1cncc(CNc2ncnc3ccc(-c4ccc5c(c4)OCO5)cc23)c1 | –
708 | COc1cccc(-c2ccc3ncnc(NCc4cccc(F)c4)c3c2)c1 | –
178 | Cc1csc(CNc2ncnc3ccc(-c4ccc5c(c4)OCO5)cc23)c1 | –
447 | c1cncc(CNc2ncnc3ccc(-c4ccc5c(c4)OCCO5)cc23)c1 | –
